Measured values published in publication PMC12709667 (Journal of Clinical Pharmacology, 2025).

Columns and labels:
BCRP = target: T1, BCRP (Homo sapiens, UniProt Q9UNQ0); test: DDI perpetrator study: rosuvastatin probe; format: in vivo; conditions: human, plasma, oral, 10 mg; for AUC: rosuvastatin, probe alone (day 1), geometric mean
T1 sequence (Q9UNQ0 1-655): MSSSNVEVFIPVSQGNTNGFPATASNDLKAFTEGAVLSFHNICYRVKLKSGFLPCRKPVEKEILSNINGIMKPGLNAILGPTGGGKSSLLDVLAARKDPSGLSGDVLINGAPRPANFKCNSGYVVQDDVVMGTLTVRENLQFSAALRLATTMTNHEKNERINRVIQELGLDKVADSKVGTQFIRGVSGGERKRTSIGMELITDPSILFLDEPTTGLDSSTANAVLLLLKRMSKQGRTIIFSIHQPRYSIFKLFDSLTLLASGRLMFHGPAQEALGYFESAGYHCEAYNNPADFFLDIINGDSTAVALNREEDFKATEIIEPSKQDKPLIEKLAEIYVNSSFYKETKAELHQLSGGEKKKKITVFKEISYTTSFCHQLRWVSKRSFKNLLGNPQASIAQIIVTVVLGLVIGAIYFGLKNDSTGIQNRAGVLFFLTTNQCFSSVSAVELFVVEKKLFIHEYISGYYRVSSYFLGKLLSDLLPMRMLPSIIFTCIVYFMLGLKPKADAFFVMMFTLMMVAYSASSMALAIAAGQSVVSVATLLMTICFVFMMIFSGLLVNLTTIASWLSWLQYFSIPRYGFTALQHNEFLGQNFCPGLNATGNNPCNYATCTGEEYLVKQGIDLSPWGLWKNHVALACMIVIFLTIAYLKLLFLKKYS

CYP3A4 = test: clinical; conditions: human, plasma, oral; for AUC: geometric mean
UGT1A1 = target: T2, UGT1A1 (Homo sapiens, UniProt P22309); test: DDI perpetrator study: dolutegravir probe; format: in vivo; conditions: human, plasma, oral, 50 mg; for AUC: dolutegravir, probe alone (day 1), geometric mean
T2 sequence (P22309 26-533): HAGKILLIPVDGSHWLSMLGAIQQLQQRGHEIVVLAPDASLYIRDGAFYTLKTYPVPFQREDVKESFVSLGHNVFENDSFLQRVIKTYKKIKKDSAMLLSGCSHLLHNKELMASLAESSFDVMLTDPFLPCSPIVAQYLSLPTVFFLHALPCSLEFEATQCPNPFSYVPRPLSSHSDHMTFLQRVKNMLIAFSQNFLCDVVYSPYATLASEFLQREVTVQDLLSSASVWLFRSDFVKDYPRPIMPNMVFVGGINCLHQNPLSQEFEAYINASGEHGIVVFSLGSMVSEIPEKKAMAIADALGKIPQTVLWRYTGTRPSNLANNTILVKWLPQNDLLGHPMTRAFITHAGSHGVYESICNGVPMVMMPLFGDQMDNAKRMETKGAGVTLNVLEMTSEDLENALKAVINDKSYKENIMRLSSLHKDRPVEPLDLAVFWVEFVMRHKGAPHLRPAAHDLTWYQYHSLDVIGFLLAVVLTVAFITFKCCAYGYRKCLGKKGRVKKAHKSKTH

CYP2C8 = target: T3, CYP2C8 (Homo sapiens, UniProt P10632); test: DDI perpetrator study: repaglinide probe; format: in vivo; conditions: human, plasma, oral, 0.5 mg; for AUC: repaglinide, probe alone (day 1), geometric mean
T3 sequence (P10632 1-490): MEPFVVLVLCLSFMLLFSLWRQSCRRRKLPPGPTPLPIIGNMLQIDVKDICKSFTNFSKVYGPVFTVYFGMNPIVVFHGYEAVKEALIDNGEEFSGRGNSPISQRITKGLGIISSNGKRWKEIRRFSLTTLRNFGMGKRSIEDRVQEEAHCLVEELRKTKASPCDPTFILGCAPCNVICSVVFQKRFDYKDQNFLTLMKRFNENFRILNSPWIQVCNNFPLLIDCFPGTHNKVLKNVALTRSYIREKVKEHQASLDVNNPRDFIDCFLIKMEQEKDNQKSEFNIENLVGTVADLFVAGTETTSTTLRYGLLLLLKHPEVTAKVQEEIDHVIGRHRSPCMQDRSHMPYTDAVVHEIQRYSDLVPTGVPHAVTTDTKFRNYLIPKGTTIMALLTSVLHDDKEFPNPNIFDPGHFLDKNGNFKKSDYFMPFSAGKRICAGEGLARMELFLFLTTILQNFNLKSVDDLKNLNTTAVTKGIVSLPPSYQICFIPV

CC(C)c1nc(N(C)S(C)(=O)=O)nc(-c2ccc(F)cc2)c1/C=C/[C@@H](O)C[C@@H](O)CC(=O)O [Rosuvastatin]
Cmax (BCRP): 2.35 ng/mL | AUC (BCRP; AUC0‐inf): 20.7 ng·h/mL | AUC (BCRP; AUC0‐last): 17.1 ng·h/mL

Cc1ncc2n1-c1ccc(Cl)cc1C(c1ccccc1F)=NC2 [Midazolam]
Cmax (CYP3A4; 2.5 mg): 8.42 ng/mL | AUC (CYP3A4; 2.5 mg, AUC0‐inf, midazolam, probe alone (day 1)): 39.5 ng·h/mL | AUC (CYP3A4; 2.5 mg, AUC0‐last, midazolam, probe alone (day 1)): 37.5 ng·h/mL | AUC (CYP3A4; AUC0‐inf, midazolam + miricorilant (day 10)): 34.7 ng·h/mL

C[C@@H]1CCO[C@H]2Cn3cc(C(=O)NCc4ccc(F)cc4F)c(=O)c(O)c3C(=O)N12 [Dolutegravir]
Cmax (UGT1A1): 2590 ng/mL | AUC (UGT1A1; AUC0‐inf): 46300 ng·h/mL | AUC (UGT1A1; AUC0‐last): 44600 ng·h/mL

CCOc1cc(CC(=O)N[C@@H](CC(C)C)c2ccccc2N2CCCCC2)ccc1C(=O)O [Repaglinide]
Cmax (CYP2C8): 2.94 ng/mL | AUC (CYP2C8; AUC0‐inf): 7.27 ng·h/mL | AUC (CYP2C8; AUC0‐last): 6.68 ng·h/mL
